Results taken from BindingDB's records for doi:10.1021/cb800162x (Yale University, 2008).

Assays:
[1] = biological target: T1, Heat shock protein HSP 90-beta (Homo sapiens, UniProt P08238); test: AlphaScreen Assay
Text: AlphaScreen technology based high-throughput (ALPHA) assay is used to identify inhibitors of Hsp90-TPR2A interaction.

[2] = biological target: T1, Heat shock protein HSP 90-beta; test: Cell Proliferation Assay; conditions: 37 °C
Text: Cell assay using BT474, SKBR3 and MCF-12F cell lines measured by WST-1 colorimetric cell proliferation assay.

T1 sequence (P08238 whole entry): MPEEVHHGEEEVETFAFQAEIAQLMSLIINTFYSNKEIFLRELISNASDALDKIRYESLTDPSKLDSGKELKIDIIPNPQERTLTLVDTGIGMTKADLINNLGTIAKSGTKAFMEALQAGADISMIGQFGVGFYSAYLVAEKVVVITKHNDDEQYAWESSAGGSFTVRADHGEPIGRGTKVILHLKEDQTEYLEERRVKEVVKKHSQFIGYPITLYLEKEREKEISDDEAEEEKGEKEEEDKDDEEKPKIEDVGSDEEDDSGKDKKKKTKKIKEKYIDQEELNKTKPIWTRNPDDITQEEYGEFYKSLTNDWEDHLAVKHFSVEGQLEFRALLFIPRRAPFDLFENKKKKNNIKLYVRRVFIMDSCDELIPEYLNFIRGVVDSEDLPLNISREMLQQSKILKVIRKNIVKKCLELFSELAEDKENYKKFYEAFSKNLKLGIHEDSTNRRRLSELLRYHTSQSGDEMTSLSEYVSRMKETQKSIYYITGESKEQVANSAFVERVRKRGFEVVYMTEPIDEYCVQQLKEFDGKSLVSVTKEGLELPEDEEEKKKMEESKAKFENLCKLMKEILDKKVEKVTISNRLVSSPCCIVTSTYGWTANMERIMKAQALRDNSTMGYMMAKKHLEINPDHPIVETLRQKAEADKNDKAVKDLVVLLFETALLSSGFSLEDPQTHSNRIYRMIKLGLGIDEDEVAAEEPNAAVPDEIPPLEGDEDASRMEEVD

SMILES	Kd [1]	EC50 [2]
Cc1nc2c(=O)n(C)c(=O)nc-2n(C)n1 [1,3,6-Trimethyl-1H-pyrimido[5,4-e][1,2,4]triazine-5,7-dione]	0.492 µM	0.946 µM
Cn1nc(-c2ccccc2)nc2c(=O)n(C)c(=O)nc1-2 [1,6-dimethyl-3-phenyl-1H,5H,6H,7H-pyrimido[5,4-e][1,2,4]triazine-5,7-dione, 10]	0.585 µM	0.69 µM
CCCc1nc2c(=O)n(C)c(=O)nc-2n(C)n1 [1,6-dimethyl-3-propyl-pyrimido[5,4-e][1,2,4]triazine-5,7-dione]	0.414 µM	0.917 µM
CCn1nc(-c2ccccc2)nc2c(=O)n(C)c(=O)nc1-2 [1-Ethyl-6-methyl-3-phenyl-1H-pyrimido[5,4-e][1,2,4]triazine-5,7-dione]	0.36 µM	1.72 µM
CCn1nc(-c2cccs2)nc2c(=O)n(C)c(=O)nc1-2 [1-ethyl-6-methyl-3-thiophen-2-yl-pyrimido[5,4-e][1,2,4]triazine-5,7-dione]	0.365 µM	1.21 µM
CCn1nc(Cc2ccccc2)nc2c(=O)n(C)c(=O)nc1-2 [3-benzyl-1-ethyl-6-methyl-1H,5H,6H,7H-pyrimido[5,4-e][1,2,4]triazine-5,7-dione, 13]	0.182 µM	4.27 µM
